From patent US20080227780A1, “SOLUBLE EPOXIDE HYDROLASE INHIBITORS” (Arete Therapeutics, Inc., priority 2007, published 2008)

System: soluble epoxide hydrolase (sEH)
Experiment: Fluorescent assay for soluble epoxide hydrolase (CMNPC substrate), percent inhibition at the recited concentration
Assay type: biochemical
Description: Fluorescent Assay for Mouse and Human Soluble Epoxide Hydrolase Recombinant mouse sEH (MsEH) and human sEH (HsEH) were produced in a baculovirus expression system as previously reported. Grant et al., J. Biol. Chem., 268:17628-17633 (1993); Beetham et al., Arch. Biochem. Biophys., 305:197-201 (1993). The expressed proteins were purified from cell lysate by affinity chromatography. Wixtrom et al., Anal. Biochem., 169:71-80 (1988). Protein concentration was quantified using the Pierce BCA assay using bovine serum albumin as the calibrating standard. The preparations were at least 97% pure as judged by SDS-PAGE and scanning densitometry. They contained no detectable esterase or glutathione transferase activity which can interfere with the assay. The assay was also evaluated with similar results in crude cell lysates or homogenate of tissues. The IC50s for each inhibitor were determined according to the following procedure: […] Jones P. D. et al.; Analytical Biochemistry 2005; 343: pp. 66-75) Bis/Tris HCl 25 mM pH 7.0 containing 0.1 mg/mL of BSA (buffer […] at 0.25 mM in DMSO. Mother solution of enzyme in buffer A (Mouse sEH at 6 μg/mL and Human sEH at 5 μg/mL). Inhibitor dissolved in DMSO at the appropriate concentration. In a black 96 well plate, fill all the wells with 150 μL of buffer A. Add 2 μL of DMSO in well A2 and A3, and then add 2 μL of inhibitor solution in A1 and A4 through A12. Add 150 μL of buffer A in row A, then mix several time and transfer 150 μL to row B. Repeat this operation up to row H. The 150 μL removed from row H is discarded. Add 20 μL of buffer A in column 1 and 2, then add 20 μL of enzyme solution to column 3 to 12. Incubate the plate for 5 minutes in the plate reader at 30° C. During incubation prepare the working solution of substrate by mixing 3.68 mL of buffer A (4×0.920 mL) with 266 μL (2×133 μL) of substrate solution). At t=0, add 30 μL of working substrate solution with multi-channel pipette labeled “Briggs 303” and start the reading ([S]final: 5 μM). Read with ex: 330 nm (20 nm) and em: 465 nm (20 nm) every 30 second for 10 minutes. The velocities are used to analyze and calculate the IC50s. Tables 1-7 above provide the percent inhibition of the enzyme when tested at the concentration recited therein.

SMILES: CC(=O)N1CCC(NC(=O)NC2CCS(=O)(=O)CC2)CC1 [Compound 8-5, 1-(1-acetylpiperidin-4-yl)-3-(1,1-dioxo-tetrahydro-2H-thiopyran-4-yl)urea]
- % inh. (Inhibition Conc. 2000 nM): 23%

SMILES: CC(=O)N1CCC(NC(=O)NC23CC4CC(C2)C(O)C(C4)C3)CC1 (single isomer, unassigned) [Compound 3-8]
- % inh. (Inhibition Conc. 5000 nM): 76%

SMILES: CC(=O)N1CCC(NC(=O)Nc2ccccn2)CC1 [Compound 6-10, 1-(1-acetylpiperidin-4-yl)-3-(pyridin-2-yl)urea]
- % inh. (Inhibition Conc. 2000 nM): 18%

SMILES: O=C(NC1CCN(S(=O)(=O)CCCO)CC1)NC12CC3CC(CC(C3)C1)C2 [Compound 7-74, 1-adamantyl-3-(1-(3-hydroxypropylsulfonyl)piperidin-4-yl)urea]
- % inh. (Inhibition Conc. 200 nM): 99%

SMILES: O=C(Nc1ccc(OC(F)(F)F)cc1)NC1CCN(C(=O)c2ccccn2)CC1 [Compound 7-2, 1-(1-picolinoylpiperidin-4-yl)-3-(4-(trifluoro-methoxy)phenyl)urea]
- % inh. (Inhibition Conc. 50 nM): 98%

SMILES: CC(=O)N1CCC(NC(=O)Nc2ccc3c(c2)OCCO3)CC1 [Compound 6-19, 1-(1-acetylpiperidin-4-yl)-3-(2,3-dihydrobenzo[b][1,4]dioxin-6-yl)urea]
- % inh. (Inhibition Conc. 2000 nM): 87%

SMILES: COC(=O)c1ccc(NC(=O)NC2CCN(C(=O)OC(C)(C)C)CC2)o1 [Compound 6-18, tert-butyl 4-(3-(5-(methoxycarbonyl)furan-2-yl)ureido)piperidine-1-carboxylate]
- % inh. (Inhibition Conc. 2000 nM): 89%

SMILES: CC(C)(C)OC(=O)N1CCC(NC(=O)Nc2ccc(C(=O)O)cc2)CC1 [Compound 7-54, 4-(3-(1-(tert-butoxycarbonyl)piperidin-4-yl)ureido)benzoic acid]
- % inh. (Inhibition Conc. 2000 nM): 55%

SMILES: CC(C)(C)OC(=O)N1CCC(NC(=O)Nc2ccc(-c3nnn[nH]3)cc2)CC1 [Compound 6-8, tert-butyl 4-(3-(4-(1H-tetrazol-5-yl)phenyl)-ureido)piperidine-1-carboxylate]
- % inh. (Inhibition Conc. 500 nM): 93%

SMILES: CC(C)S(=O)(=O)N1CCC(NC(=O)Nc2ccc(OC(F)(F)F)cc2)CC1 [Compound 7-55, 1-(1-(isopropylsulfonyl)piperidin-4-yl)-3-(4-(trifluoromethoxy)phenyl)urea]
- % inh. (Inhibition Conc. 200 nM): 94%

SMILES: O=C(NC1CCCCC1)NC1CCN(C(=O)CCCN2CCOCC2)CC1 [Compound 7-61, 1-cyclohexyl-3-(1-(4-morpholinobutanoyl)piperidin-4-yl)urea]
- % inh. (Inhibition Conc. 500 nM): 83%

SMILES: O=C(NC1CCCCC1)NC1CCN(C(=O)c2ccccn2)CC1 [Compound 7-40, 1-cyclohexyl-3-(1-picolinoylpiperidin-4-yl)urea]
- % inh. (Inhibition Conc. 50 nM): 82%

SMILES: O=C(Nc1ccc(C(F)(F)F)cc1)NC1CCN(c2ncccc2C(=O)O)CC1 [Compound 2-7]
- % inh. (Inhibition Conc. 500 nM): 64%

SMILES: CC(=O)N1CCC(NC(=O)NCC2CCCCC2)CC1 [Compound 1-2, 1-(1-acetylpiperidin-4-yl)-3-(cyclo-hexylmethyl)urea]
- % inh. (Inhibition Conc. 500 nM): 92%

SMILES: O=C(Nc1ccc(C(F)(F)F)cc1)NC1CCN(c2ccccc2)CC1 [Compound 2-5, 1-(1-phenylpiperidin-4-yl)-3-(4-(trifluoro-methyl)phenyl)urea]
- % inh. (Inhibition Conc. 50 nM): 99%

SMILES: CC(=O)N1CCC(NC(=O)NC2CCCCC2)CC1 [Compound 7-43, 1-(1-acetylpiperidin-4-yl)-3-cyclohexylurea]
- % inh. (Inhibition Conc. 500 nM): 86%

SMILES: Cc1c(Cl)cccc1S(=O)(=O)N1CCC(NC(=O)NC23CC4CC(CC(C4)C2)C3)CC1 [Compound 7-34, 1-(1-(3-chloro-2-methylphenylsulfonyl)piperidin-4-yl)-3-adamantylurea]
- % inh. (Inhibition Conc. 50 nM): 91%

SMILES: O=C(NC1CCCCC1)NC1CCN(S(=O)(=O)c2ccc(Cl)cc2)CC1 [Compound 7-42, 1-(1-(4-chlorophenylsulfonyl)piperidin-4-yl)-3-cyclohexylurea]
- % inh. (Inhibition Conc. 50 nM): 95%

SMILES: CC(=O)N1CCC(NC(=O)NC23CC4CC(CC(F)(C4)C2)C3)CC1 [Compound 3-4, 1-(1-acetylpiperidin-4-yl)-3-(3-fluoroadamant-1-yl)urea]
- % inh. (Inhibition Conc. 500 nM): 82%

SMILES: CC(=O)N1CCC(NC(=O)NC2CCN(C(=O)OC(C)(C)C)CC2)CC1 [Compound 8-2, tert-butyl 4-(3-(1-acetylpiperidin-4-yl)ureido)piperidine-1-carboxylate]
- % inh. (Inhibition Conc. 2000 nM): 86%

SMILES: CS(=O)(=O)c1ccc(S(=O)(=O)N2CCC(NC(=O)NC34CC5CC(CC(C5)C3)C4)CC2)cc1 [Compound 7-41, 1-adamantyl-3-(1-(4-(methylsulfonyl)phenylsulfonyl)piperidin-4-yl)urea]
- % inh. (Inhibition Conc. 50 nM): 92%

SMILES: CC(C)(C)S(=O)(=O)N1CCC(NC(=O)NC23CC4CC(CC(C4)C2)C3)CC1 [Compound 7-78, 1-(1-(tert-butylsulfonyl)piperidin-4-yl)-3-adamantylurea]
- % inh. (Inhibition Conc. 200 nM): 95%

SMILES: CC(C)OC(=O)N1CCC(NC(=O)Nc2ccc(C(F)(F)F)cc2)CC1 [Compound 7-20, isopropyl 4-(3-(4-(trifluoromethyl)phenyl)ureido)piperidine-1-carboxylate]
- % inh. (Inhibition Conc. 50 nM): 95%

SMILES: CC(=O)N1CCC(NC(=O)NC23CC4CC(C2)C(O)C(C4)C3)CC1 (single isomer, unassigned) [Compound 3-5, 1-(1-acetylpiperidin-4-yl)-3-(4-hydroxyadamant-1-yl)urea]
- % inh. (Inhibition Conc. 5000 nM): 87%

SMILES: CC(C)(C)C(=O)N1CCC(NC(=O)NC23CC4CC(CC(C4)C2)C3)CC1 [Compound 7-13, 1-(1-adamantyl)-3-(1-pivaloylpiperidin-4-yl)urea]
- % inh. (Inhibition Conc. 50 nM): 91%

SMILES: COc1ccc(NC(=O)NC2CCN(C(=O)C(C)(C)C)CC2)cn1 [Compound 6-13, 1-(6-methoxypyridin-3-yl)-3-(1-pivaloylpiperidin-4-yl)urea]
- % inh. (Inhibition Conc. 2000 nM): 97%

SMILES: CC(=O)N1CCC(NC(=O)Nc2ccc3nc(C)sc3c2)CC1 [Compound 6-15, 1-(1-acetylpiperidin-4-yl)-3-(2-methylbenzo[d]thiazol-6-yl)urea]
- % inh. (Inhibition Conc. 2000 nM): 70%

SMILES: CS(=O)(=O)N1CCC(NC(=O)NC2CCN(S(C)(=O)=O)CC2)CC1 [Compound 8-1, 1,3-bis(1-(methylsulfonyl)piperidin-4-yl)urea]
- % inh. (Inhibition Conc. 5000 nM): 79%

SMILES: Cc1nc(C(=O)N2CCC(NC(=O)NC34CC5CC(CC(C5)C3)C4)CC2)c(C)o1 [Compound 7-8, 1-(1-adamantyl)-3-(1-(2,5-dimethyloxazole-4-carbonyl)piperidin-4-yl)urea]
- % inh. (Inhibition Conc. 50 nM): 89%

SMILES: CC(=O)N1CCC(NC(=O)Nc2ccc(-c3nnn[nH]3)cc2)CC1 [Compound 6-9, 1-(4-(1H-tetrazol-5-yl)phenyl)-3-(1-acetylpiperidin-4-yl)urea]
- % inh. (Inhibition Conc. 5000 nM): 84%

SMILES: CC(=O)N1CCC(NC(=O)NC23CC4CC(F)(CC(F)(C4)C2)C3)CC1 [Compound 3-3, 1-(1-acetylpiperidin-4-yl)-3-(3,5-difluoroadamant-1-yl)urea]
- % inh. (Inhibition Conc. 500 nM): 63%

SMILES: CC(=O)N1CCC(NC(=O)NC2CCOCC2)CC1 [Compound 8-4, 1-(1-acetylpiperidin-4-yl)-3-(tetrahydro-2H-pyran-4-yl)urea]
- % inh. (Inhibition Conc. 2000 nM): 23%

SMILES: CC(=O)N1CCC(NC(=O)NCCC(c2ccccc2)c2ccccc2)CC1 [Compound 1-7, 1-(1-acetypiperidin-4-yl)-3-(3,3-diphenylpropyl)urea]
- % inh. (Inhibition Conc. 200 nM): 100%

SMILES: CC(C)(C)OC(=O)N1CCC(NC(=O)Nc2ccc(S(C)(=O)=O)cc2)CC1 [Compound 7-49, tert-butyl 4-(3-(4-(methylsulfonyl)phenyl)ureido)piperidine-1-carboxylate]
- % inh. (Inhibition Conc. 200 nM): 83%

SMILES: CN(C)C(=O)N1CCC(NC(=O)Nc2ccc(C(F)(F)F)cc2)CC1 [Compound 7-21, N,N-dimethyl-4-(3-(4-(trifluoromethyl)phenyl)-ureido)piperidine-1-carboxamide]
- % inh. (Inhibition Conc. 50 nM): 86%

SMILES: CC(C)(C)OC(=O)N1CCC(NC(=O)NC2CCCCCC2)CC1 [Compound 7-48, tert-butyl 4-(3-cycloheptylureido)piperidine-1-carboxylate]
- % inh. (Inhibition Conc. 200 nM): 100%

SMILES: O=C(NC1CCN(S(=O)(=O)c2ccc(-c3ccccc3)cc2)CC1)NC12CC3CC(CC(C3)C1)C2 [Compound 7-24, 1-(1-(biphenyl-4-ylsulfonyl)piperidin-4-yl)-3-adamantylurea]
- % inh. (Inhibition Conc. 50 nM): 96%

SMILES: CNS(=O)(=O)c1cccc(C(=O)N2CCC(NC(=O)Nc3ccc(OC(F)(F)F)cc3)CC2)c1 [Compound 4-10, N-methyl-3-(4-(3-(4-(trifluoromethoxy)-phenyl)ureido)-piperidine-1-carbonyl)benzene-sulfonamide]
- % inh. (Inhibition Conc. 50 nM): 93%

SMILES: NS(=O)(=O)c1ccc(C(=O)N2CCC(NC(=O)NC34CC5CC(CC(C5)C3)C4)CC2)cc1 [Compound 4-3, 4-(4-(3-(1-adamantyl)ureido)-piperidine-1-carbonyl)benzene-sulfonamide]
- % inh. (Inhibition Conc. 50 nM): 93%
